Measurements as given in patent US10456434B2, “Extracts obtained from cell line cultures from plants belonging to the Oleaceae family (e.g. Syringa vulgaris), their preparation and use” (CRODA ITALIANA S. P. A., priority 2005, dated 2019).
In brackets after ≈: the same amount, converted by molar mass.

Tests used:
[1] = system: whole blood; assay: Whole blood luminol dependent chemiluminescence; type: cell-based; conditions: 0.5 h; fresh human blood, 30 minutes, 37° C.; read-out: Whole blood chemiluminescence (IC 50 mg/ml)
Description: (§1) Anti-inflammatory activity has been assessed by measuring luminol dependent chemiluminescence generated by free radicals released from whole blood and from white blood cells. The assay has been performed using the following protocol: 10 μl of fresh human blood is mixed with 0.980 ml of Hanks saline solution containing 5×10^−5 M luminol and the test sample (at various concentrations). The chemiluminescent response is recorded continuously for 30 minutes at a temperature of 37° C. The results are expressed as IC50 (mg/ml), i.e. as the minimum sample, concentration inhibiting chemiluminescence by 50% with respect to the control. To isolate white blood cells (WBC) from whole blood one proceeds in the following manner: 1 ml of fresh blood is layered onto a Hipaque gradient (p=1.119) and centrifuged at 250×g for 60 minutes at room temperature. Following centrifugation, the pellet containing the white blood cells is washed twice, using a large volume of cold Hanks saline solution. Finally, the washed WBCs are resuspended in 01 ml di HBSS containing foetal calf serum. 10^6 WBC are added to a chemiluminometer cuvette. 10 μl of PMA (final concentration equal to 10 nM) are added to induce the formation of free radicals. The chemiluminescent response is recorded continuously for 30 minutes at a temperature of 37° C. […]

[2] = system: white blood cells; assay: PMA-stimulated white blood cell chemiluminescence; type: cell-based; conditions: Homo sapiens; 10^6 WBC, PMA 10 nM; read-out: White blood cell chemiluminescence (IC50 mg/ml)
Description: as §1

[3] = Metal chelating activity (spectrophotometric), Fe2+; type: binding; conditions: chelation equilibrium constant, calculated for a pure phenylpropanoid
Description: (§2) The chelating activities of Syringa vulgaris extracts, verbascoside and isoverbascoside in relation to Fe^2+, Fe^3+, Cu^2+ and Ni^2+ metal ions has been determined by means of spectrophotometric measurements using a Shimadzu 1770 UV spectrophotometer. The activities of chelating agents depends on the association constant (equilibrium) of their reactions with the metals according to the following reaction:
(§3) [formula] wherein Keq is the equilibrium constant equal to the ratio of concentrations at equilibrium of a complex and product of equilibrium concentrations of metal ions and a chelator:
(§4) [formula] The method used for determining chelating activity is well documented in the literature (Korkina L G, Afarras'er IB. Antioxidant and chelating properties of flavonoids. Adv. Pharmacol., 1997, 38:151-63). The results are expressed as Keg (M^−1) calculated for a pure phenylpropanoid. This way the chelating activity against ferrous (Fe II), ferric (Fe III), copper (Cu II) and nickel ions has been calculated.

[4] = Metal chelating activity (spectrophotometric), Cu2+; type: binding; conditions: chelation equilibrium constant, calculated for a pure phenylpropanoid
Description: as §2, §3, §4

[5] = Metal chelating activity (spectrophotometric), Ni2+; type: binding; conditions: chelation equilibrium constant, calculated for a pure phenylpropanoid
Description: as §2, §3, §4

[6] = molecular target: T1, 5 alpha reductase type II (Homo sapiens, UniProt P31213); assay: Type II 5 alpha reductase inhibition (14C testosterone conversion); type: biochemical; conditions: pH 5.0
T1 construct: made in house; host or cells: genetically modified yeast
T1 sequence (P31213 1-254): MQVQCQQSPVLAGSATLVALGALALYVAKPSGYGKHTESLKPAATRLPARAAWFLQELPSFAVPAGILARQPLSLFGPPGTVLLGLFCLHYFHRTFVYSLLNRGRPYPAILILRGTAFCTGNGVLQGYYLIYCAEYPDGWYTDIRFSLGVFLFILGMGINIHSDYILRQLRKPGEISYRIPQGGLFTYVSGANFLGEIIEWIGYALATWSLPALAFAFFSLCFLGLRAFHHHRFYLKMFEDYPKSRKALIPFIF
Description: Determination of the 5 alpha reductase inhibitory activities by Syringa vulgaris extracts, verbascoside and isoverbascoside in comparison to Serenoa repens extracts. Said determination, has been performed using enzymes (5 alpha reductase, type I and type II) produced by genetically modified yeast. Enzyme activities have been determined in the presence of Syringa vulgaris and Serenoa repens extracts, verbascoside isoverbascoside.
Determination of the type II 5 alpha reductase activity has been performed in an analogous manner to that just described, with the exception of a different pH value for the 0.1 M Tris-citrate buffer (pH 5.0).
In both assays, the steroids have been extracted using 5 ml of methylene chloride. The extracts have then been dried under a stream of nitrogen and the dried residues obtained have, been dissolved in 20 μl of a chloroform-methanol mixture (2:1 v/v). An aliquot of said mixture has been deposited on the surface of a silica gel TLC plate. […] For quantification of the results, the spots have been scraped from the TLC plate and extracted with 2 ml of ethyl acetate. The extracts obtained have been analysed, using scintillation fluid, with the aid of a Wallach […]. The enzyme activity has been calculated from the percentage conversion (C %) of the substrate into final product:
C %=[counted product/(counted substrate+product)]×100.

[7] = system: Trycophyton rubrum ATCC 28188; assay: Multiple dilution antimycotic assay, Trycophyton rubrum; type: cell-based; conditions: assayed at 0.625-5 mg/ml
Description: With the aim of identifying any potential antifungal activity in the Syringa vulgaris extracts, microbiological assays have been prepared, generally known as multiple dilution assays. Such assays have been performed using the following fungal strains: Trycophyton rubrum ATCC 28188 and Malassezia furfur ST 8036. Syringa vulgaris Extracts 1 and 2, verbascoside and isoverbascoside have been assayed at concentrations of […], 1.25 mg/ml, 2.5 mg/ml and 5 mg/ml. The fungal strains used for testing have been inoculated into culture-broth (in Tryptone soy broth medium, for Malassezia furfur the culture medium has been supplemented with 2 ml/100 ml of olive oil) containing Syringa vulgaris extracts 1 and 2, verbascoside and isoverbascoside at the concentrations described above. In parallel with these tests, culture broths containing the microbial strain alone have been prepared (controls). The culture-broths have, been incubated at 30° C. for a period of 28 days. Samples of the various culture-broths have been taken at 0, 7, 14, 21 and 28 days, with the aim of counting the number of CFU/ml in relation to the various fungal strains, by plating the cultures on solid medium. A certain number of serial dilutions have been prepared for each sample in order to determine the fungal load of each culture-broth. Each dilution has been assayed in triplicate on solid medium. […]

IC50 [1] [mg/mL] | IC50 [2] [mg/mL] | IC50 [6] [µM] | Compound | Fe^2+ (Keq, M^−1) [3] [M⁻¹] | Cu^2+ (Keq, M^−1) [4] [M⁻¹] | Ni^2+ (Keq, M^−1) [5] [M⁻¹] | antimycotic activity towards Trycophyton rubrum (in words) [7]
1.3 (≈ 2080 µM) | 0.25 (≈ 400 µM) | 32 | CC1OC(OC2C(O)C(COC(=O)C=Cc3ccc(O)c(O)c3)OC(OCCc3ccc(O)c(O)c3)C2O)C(O)C(O)C1O [Isoverbascoside, b-(3,4-dihydroxyphenyl)-ethyl-O-α-L-ramnopyranosyl(1″-3′)-b-D-(6′-O-caffeoil)glucopyranoside] | 460000 ± 120000 | 130000 ± 60000 | 1398 ± 362 | activity comparable to Extract 1
1.29 (≈ 2070 µM) | 0.23 (≈ 368 µM) | 33.6 | C[C@@H]1O[C@@H](O[C@@H]2[C@@H](O)[C@H](OCCc3ccc(O)c(O)c3)O[C@H](CO)[C@H]2OC(=O)/C=C/c2ccc(O)c(O)c2)[C@H](O)[C@H](O)[C@H]1O [Verbascoside, b-(3,4-dihydroxyphenyl)-ethyl-O-α-L-ramnopyranosyl (1″-3′)-b-D-(4′-O-caffeoil)-glucopyranoside] | 450000 ± 110000 | 120000 ± 40000 | 1427 ± 319 | activity comparable to Extract 1
